Assays:
PR-1, PR-2 and PR-5 = assay: Northern analysis of SAR gene expression after chemical treatment
Protocol: Plants were then treated with H2O, 5 mM SA, 300 FM BTH, or 300 FM INA. Chemicals were applied as a fine mist to completely cover the seedlings using a chromister. Water control plants were returned to the growing phytotron while the chemically treated plants were held in a separate but identical phytotron. At 3 days post-chemical application, water and chemically treated plants were inoculated with the compatible Emwa isolate. Noco inoculation was conducted on water treated plants only. Following inoculation, plants were covered with a clear plastic dome to maintain high humidity required for successful P. parasitica infection and placed in a growing chamber with 19° C. day/17° C. night temperatures and 8 h light/16 h dark cycles. RNA was extracted from plants 3 days after either water or chemical treatment, or 14 days after inoculation with the compatible P. parasitica Emwa isolate. The RNA was size-fractionated by agarose gel electrophoresis and transferred to GeneScreenPlus membranes (DuPont).
In FIG. 1, replicate blots were hybridized to Arabidopsis gene probes PR-1, PR-2 and PR-5 as described in Uknes et al. (1992).

NIM1 gene = assay: RNA gel blot of NIM1 (gene region 2) mRNA after chemical treatment; details: wild-type Ws plants (FIG. 7)
Description: To ascertain which gene region contained the NIM1 gene, gel blots containing RNA isolated from leaf tissue of Ws-0 and the different nim1 mutants following either water or chemical treatment were probed with DNA derived from each of the four gene regions. In these experiments, care was taken to label probes to high specific activity and autoradiographs were exposed for more than 1 week.
Identical Northern blots were made from RNA samples isolated from water-, SA-, BTH- and INA-treated Ws and nim1 lines as previously described in Delaney, et al. (1995). These blots were hybridized with PCR products generated from the four gene regions identified in the 9.9 kb NIM1 gene region (SEQ ID NO:1).
The same RNA samples produced in the induction studies (FIG. 3) were also probed with the NIM1 gene using a full4ength cDNA clone as a probe.

[1] = tested on: Peronospora parasitica isolate Emwa; assay: Percent of plants showing P. parasitica Emwa surface conidia after chemical pretreatment; details: for Percent Infection - Emwa: P. parasitica inoculated 3 days after chemical treatment
Protocol: Mutant plants were treated with SA, INA, and BTH and then assayed for resistance to Peronospora parasitica.P. parasitica isolate ‘Emwa’ is a Pp. isolate that is compatible in the Ws ecotype.
(§1) Wild-type seeds and seeds for each of the nim1 alleles (nim1-1,-2,-3,-4,-5,-6) were sown onto MetroMix 300 growing media, covered with a transparent plastic dome, and placed at 4° C. in the dark for 3 days. After 3 days of 4° C. treatment, the plants were moved to a phytotron for 2 weeks. By approximately 2 weeks post-planting, germinated seedlings had produced 4 true leaves. Plants were then treated with H2O, 5 mM SA, 300 μM BTH, or 300 μM INA. Chemicals were applied as a fine mist to completely cover the seedlings using a chromnister. Water control plants were returned to the growing phytotron while the chemically treated plants were held in a separate but identical phytotron. At 3 days post-chemical application, water and chemically treated plants were inoculated with the compatible ‘Emwa’ isolate. ‘Noco’ inoculation was conducted on water treated plants only. Following inoculation, plants were covered with a clear plastic dome to maintain high humidity required for successful P. parasitica infection and placed in a growing chamber with 19° C. day/17° C. night temperatures and 8 h light/16 h dark cycles.
To determine the relative strength of the different nim1 alleles, each mutant was microscopically analyzed at various timepoints after inoculation for the growth of P. parasitica under normal growth conditions and following pretreatment with either SA, INA, or BTH. Under magnification, sporulation of the fungus could be observed at very early stages of disease development. The percentage of plants/pot showing sporulation at 5d, 6d, 7d, 1 id and 14d after inoculation was determined and the density of sporulation was also recorded.
P. parasitica was inoculated onto the plants three days after water or chemical treatment.

[2] = tested on: Peronospora parasitica isolate Emwa; assay: Infection severity rating after inoculation with Peronospora parasitica (Emwa) following chemical pretreatment
Protocol: as §1
WsWT indicates the Ws wild type parent line in which the nim1 alleles were found. The various nim1 alleles are indicated in the table and the NahG plant is indicated also.
NahG plants therefore serve as a kind of universal susceptibility control.

SMILES: CSC(=O)c1cccc2nnsc12 [BTH]
- SAR and SAR gene expression (PR-1, PR-2, PR-5) (PR-1, PR-2 and PR-5; nim1 plants, RNA gel blots FIGS. 1-3): induce neither SAR nor SAR gene expression
- PR-1 mRNA accumulation (PR-1, PR-2 and PR-5; wild-type plants, RNA 3 days after chemical treatment (FIG. 3)): accumulates to high levels
- NIM1 (gene region 2) mRNA (NIM1 gene): induced
- Percent Infection - Emwa ([1]; Ws WT plants, Day 0): 0%
- Percent Infection - Emwa ([1]; Ws WT plants, Day 5): 0%
- Percent Infection - Emwa ([1]; Ws WT plants, Day 6): 0%
- Percent Infection - Emwa ([1]; Ws WT plants, Day 7): 0%
- Percent Infection - Emwa ([1]; Ws WT plants, Day 11): 0%
- Percent Infection - Emwa ([1]; nim1-1 plants, Day 0): 0%
- Percent Infection - Emwa ([1]; nim1-1 plants, Day 5): 1%
- Percent Infection - Emwa ([1]; nim1-1 plants, Day 6): 5%
- Percent Infection - Emwa ([1]; nim1-1 plants, Day 7): 30%
- Percent Infection - Emwa ([1]; nim1-1 plants, Day 11): 100%
- Percent Infection - Emwa ([1]; nim1-2 plants, Day 0): 0%
- Percent Infection - Emwa ([1]; nim1-2 plants, Day 5): 0%
- Percent Infection - Emwa ([1]; nim1-2 plants, Day 6): 25%
- Percent Infection - Emwa ([1]; nim1-2 plants, Day 7): 90%
- Percent Infection - Emwa ([1]; nim1-2 plants, Day 11): 100%
- Percent Infection - Emwa ([1]; nim1-3 plants, Day 0): 0%
- Percent Infection - Emwa ([1]; nim1-3 plants, Day 5): 15%
- Percent Infection - Emwa ([1]; nim1-3 plants, Day 6): 70%
- Percent Infection - Emwa ([1]; nim1-3 plants, Day 7): 100%
- Percent Infection - Emwa ([1]; nim1-3 plants, Day 11): 100%
- Percent Infection - Emwa ([1]; nim1-4 plants, Day 0): 0%
- Percent Infection - Emwa ([1]; nim1-4 plants, Day 5): 80%
- Percent Infection - Emwa ([1]; nim1-4 plants, Day 6): 100%
- Percent Infection - Emwa ([1]; nim1-4 plants, Day 7): 100%
- Percent Infection - Emwa ([1]; nim1-4 plants, Day 11): 100%
- Percent Infection - Emwa ([1]; nim1-5 plants, Day 0): 0%
- Percent Infection - Emwa ([1]; nim1-5 plants, Day 5): 0%
- Percent Infection - Emwa ([1]; nim1-5 plants, Day 6): 1%
- Percent Infection - Emwa ([1]; nim1-5 plants, Day 7): 1%
- Percent Infection - Emwa ([1]; nim1-5 plants, Day 11): 10%
- Percent Infection - Emwa ([1]; nim1-6 plants, Day 0): 0%
- Percent Infection - Emwa ([1]; nim1-6 plants, Day 5): 1%
- Percent Infection - Emwa ([1]; nim1-6 plants, Day 6): 90%
- Percent Infection - Emwa ([1]; nim1-6 plants, Day 7): 100%
- Percent Infection - Emwa ([1]; nim1-6 plants, Day 11): 100%
- activity in nim1 plants ([1]; nim1 plants): inactive
- response of plants to the inducer (disease resistance) ([2]; NahG plants): very good response
- Infection Severity - Emwa ([2]; NahG plants, Day 7 after inoculation): 0
- Infection Severity - Emwa ([2]; NahG plants, Day 11 after inoculation): 0
- Infection Severity - Emwa ([2]; Ws Wt plants, Day 7 after inoculation): 0
- Infection Severity - Emwa ([2]; Ws Wt plants, Day 11 after inoculation): 0
- induced resistance to Emwa ([2]; Ws plants): very good resistance
- Infection Severity - Emwa ([2]; nim1-1 plants, Day 7 after inoculation): 2.5
- Infection Severity - Emwa ([2]; nim1-1 plants, Day 11 after inoculation): 4
- Infection Severity - Emwa ([2]; nim1-2 plants, Day 7 after inoculation): 3.5
- Infection Severity - Emwa ([2]; nim1-2 plants, Day 11 after inoculation): 4
- Infection Severity - Emwa ([2]; nim1-3 plants, Day 7 after inoculation): 3
- Infection Severity - Emwa ([2]; nim1-3 plants, Day 11 after inoculation): 3.5
- Infection Severity - Emwa ([2]; nim1-4 plants, Day 7 after inoculation): 4
- Infection Severity - Emwa ([2]; nim1-4 plants, Day 11 after inoculation): 5
- Infection Severity - Emwa ([2]; nim1-5 plants, Day 7 after inoculation): 1.5
- Infection Severity - Emwa ([2]; nim1-5 plants, Day 11 after inoculation): 2
- Infection Severity - Emwa ([2]; nim1-6 plants, Day 7 after inoculation): 3
- Infection Severity - Emwa ([2]; nim1-6 plants, Day 11 after inoculation): 4

— patent publication US20020152499A1, “Gene encoding a protein involved in the signal transduction cascade leading to systemic acquired resistance in plants” (priority 1996, published 2002)
